The text below walks through data of patent publication US10478431B2, “Methods for treating a cytomegalovirus infection” (priority 2014, dated 2019).

Structures are written as SMILES. Entries after “also recorded” stand apart in the source; their conditions may differ. Structures can show the parent of a compound that is named as a salt.

The subject of one assay is IE2. Put plainly: Quantitative Western blot of IE2. The class given is cell-based, human CMV (hCMV). The conditions noted are these: with increasing Hoechst 33258 exposure. On the procedure: Cell monolayers were rinsed in PBS buffer, and cells from each well were scraped into 50 μl A of RIPA buffer and stored at −80° C. For analysis, samples were thawed and quantitated for total protein content using a modified Lowry assay (BioRad DC protein assay kit). Equivalent amounts of total protein (10 μg) were added to appropriate volumes of 4× sample loading buffer (50 mM Tris-HCl pH 6.8, 2% sodium docecyl sulfate (SDS), 10% glycerol, 1% beta-mercaptoethanol, 12.5 mM EDTA, and 0.02% bromophenol blue) and heated at 95° C. for 5 minutes. Protein samples were loaded and separated on precast SDS polyacrylamide gel electrophoresis (PAGE) 10% or 7.5% bisacrylamide gels (BioRad). Protein transfer and blot preparation were handled as previously described (Bolovan-Fritts et al., 2004). For detection of protein bands, primary mouse monoclonal antibody against a shared epitope present in IE1 and IE2 at 1:100 (MAB810, Millipore). Beta tubulin was used as a normalization marker, and detected by a primary rabbit anti-beta tubulin antibody (926-42211, LiCor) used at a dilution of 1:2000. The secondary antibody for IE2 detection used was a donkey anti-mouse conjugated to IR dye 800CW (926-32212, LiCor) at a dilution of 1:20,000. […] Blots were scanned using a LiCor Odyssey Infrared Imaging system and software analysis for quantitation.
Background: In western blotting, separated proteins are transferred to a membrane and probed.

Assay [1] relates to DNA CRS target with purified IE2 protein. Nature of the assay: Gel shift assay (EMSA) of IE2-CRS. The conditions noted are these: various amounts of BB33258; FIG. 20. The class given is binding. On the procedure:
IE2-MBP expressed in BL21 cells was purified using amylose column, and EMSA was performed for IE2-crs interaction as described in Macias, M. P., Stinski, M. F., 1993. PNAS. 90, 707-711.

Assay [2] has as its system CMV AD169 (a laboratory strain of HCMV). Put plainly: Human CMV viral replication kinetics in MRCS cells (TCID50, PFU/ml). The class given is cell-based, human CMV (hCMV). On the procedure:
MRCS cells were seeded into cell culture plates and maintained for 1 to 2 days until cells reached confluency at ˜5×10^4 cells per well. The monolayers were then infected with recombinant virus human CMV IE2-YFP or CMV-GFP as a control. HCMV IE2-YFP was used as the control virus for replication kinetics with the Δcrs IE2-YFP recombinant virus. Cells were infected at a multiplicity of infection (MOI) of 1, 0.2, or 0.1, as indicated. Inoculum was prepared using virus stocks diluted in culture media, and adsorbed onto cells in a volume of 200 μl for one hour at 37° C. in a humidified CO2 incubator. Inoculum was then removed and replaced with one mL of fresh media. The amount of infectious virus to prepare inoculum was based on plaque assay titrations (Bolovan-Fritts and Wiedeman, 2001) of virus stocks and is shown as time point 0 in each figure. For each time point three separate sample wells were collected. Infectious cell-free virus was collected by harvesting medium from infected culture wells at indicated time points and stored at −80° C. To measure replication, samples were thawed and prepared as a 10-fold serial dilution series in culture media, then analyzed by TCID50. The results were then converted to plaque-forming units per ml (PFU/ml). Error ranges were calculated using standard deviation.

Assay [3] concerns IE2 negative feedback (MIEP-IE2-IRES-GFP construct, LM2ig). Put plainly: IE2 negative feedback reporter: cells harboring LM2ig (MIEP-IE2-IRES-GFP), GFP by flow cytometry. The class given is cell-based, human CMV (hCMV). On the procedure: MRCS fibroblasts and life-extended human foreskin fibroblasts (HFFs) (Bresnahan and Shenk, 2000) were maintained in Dulbecco's Modified Eagle's Medium (DMEM) supplemented with 10% fetal bovine serum (FBS) and 50 U/ml penicillin-streptomycin at 37° C. and 5% CO2 in a humidified incubator. ARPE-19 cells were maintained in a 1:1 mixture of DMEM/F-12 (Mediatech Inc.) with 10% FBS (HyClone) and 50 U/ml Penicillin-Streptomycin (Mediatech Inc.). Cells were treated with a final concentration of 1 mM valproic acid (VPA) (Calbiochem™), resuspended in dimethylsulfoxide, for approximately 24 hours before imaging. Cells were treated with a final concentration of 400 nM TSA (Sigma-Aldrich) resuspended in dimethylsulfoxide, for 20-24 hours, a final concentration of 10 ng/mL TNF-α (Sigma-Aldrich) resuspended in phosphate-buffered saline (PBS), or a final concentration of 1 mM VPA (Calbiochem) for approximately 24 hours before imaging.
Standard lentiviral cloning was used to create minimal major immediate early (MIE) circuits (Dull et al., 1998). The minimal MIEP-IE2-GFP and MIEP-GFP circuits are driven by a full-length ˜2.5 kb MIE promoter-enhancer (MIEP) that spans the sequence from the MIEP modulator at the 5′ edge to the junction of immediate early (IE) exons 1 and 2. The MIEP was polymerase chain reaction (PCR)-cloned from AD169 into pLEIGW in place of the EF1a promoter. This full-length MIEP drives an IE2-IRES-GFP or mCherry-IRES-GFP cassette. IE2 was cloned from pRSV-IE86 (a gift from Jay Nelson). ARPE-19 cells were infected and fluorescence-activated cell sorter (FACS) sorted for green fluorescent protein (GFP) fluorescence to create stably expressing cell lines. Cells were treated with Trichostatin-A (TSA) for 17 hours, and GFP expression was quantified by flow cytometry. Live cells were gated by forward-versus-side scattering on a FacsCalibur™ cytometer (BD Biosciences) and mean fluorescence intensity recorded. At least 20,000 live cells were recorded for each experiment and data was analyzed in FlowJo™ (Treestar Inc.).
See WO 2014/127148 for descriptions of MIEP-IE2-reporter constructs. For example, LM2ig construct is depicted in FIG. 7 of WO 2014/127148.
For orientation: Flow cytometry measures light scatter and fluorescence of single cells or particles in a stream.

Turning to `CN1CCN(c2ccc3[nH]c(-c4ccc5[nH]c(-c6ccc(O)cc6)nc5c4)nc3c2)CC1` [Hoechst 33258, 2′-(4-hydroxyphenyl)-5-(4-methyl-1-piperazinyl)-2,5′-bi-1H-benzimidazole trihydrochloride hydrate], the “IE2 levels (quantitative Western blot)” value in the assay on IE2 is given as “increase”. Further, the “binding to the CRS sequence (EMSA)” value in assay [1] is on record as “binding”. Moreover, the “reduction of hCMV replication” value in assay [2] (FIG. 10) was “more than 100 fold”. For the same molecule, in assay [2] (MRCS cells, CMV AD169, 5, 10 or 20 μM Hoechst 33258, data in PFU/ml, FIG. 3, trihydrochloride hydrate), the HCMV viral replication entry is given as “inhibited HCMV viral replication; also recorded: significantly reduced HCMV replication”. The “breaking of the IE2 negative feedback circuit” value in assay [3] (24-28 hour exposure) was “breaks the IE2 negative feedback circuit”. The “quiescent MIEP-driven expression in a reporter cell line” value in assay [3] (ARPE-19 cells harboring LM2ig, 20 μM Hoechst 33258, FACS, FIG. 4 upper panel) was “activated quiescent MIEP-driven expression”. In addition, the “number of GFP-positive cells” value in assay [3] (ARPE-19 cells harboring LM2ig, Hoechst 33258 with or without VPA, FIG. 7) is “induced an increase”. The “mean fluorescence intensity (MFI)” value in assay [3] (ARPE-19 cells harboring LM2ig, Hoechst 33258 with or without VPA, FIG. 8) was “increased MFI”. In addition, the “production of IE2, as measured by GFP expression (GFP mean fluorescence intensity; GFP-MFI)” value in assay [3] (ARPE-19 cells stably transduced with LM2ig, FIG. 1, FIG. 2) was “increased production of IE2”. Further, the “reactivation of the LM2ig minimal circuit” value in assay [3] (Hoechst 33258: after 24 hours) is listed as “strongly reactivates”. Also, the “breaking of the circuit and reactivation of the promoter from an off (silenced) state” value in assay [3] (long-term (e.g., 8-10 days) exposure) is “breaks the circuit and reactivates the promoter”.
